Tests used:
Rat DRG = assay: Rat dorsal root ganglion excitability response (EFS, Ca2+ transients); type: cell-based; details: Rattus norvegicus; Table 3; electrical field stimulation, Ca5 indicator; read-out: Scoring (EC50, Rat DRG excitability)
Summary of the method: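 Adult rat DRG cells cultured for 2 days were loaded with the Ca5 dye 1 h before electrical field stimulation under four protocols. Compounds were tested at six concentrations (typically top 30 μM, 1:3 steps, duplicate), added either 24 h before or directly before EFS. The read-out was the per-well peak/baseline fluorescence ratio change, with imaging used to check for toxicity.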

T cells = assay: T cell proliferation (anti-CD3/anti-CD28 dynabeads, CCK-8); type: cell-based, mice; details: Table 4, mouse T cells, 72 hours after dynabeads, read-out: Scoring (IC50, cell proliferation)
Method: Spleens were obtained from six male, CD-1 outbred mice, approximately 8 weeks old. Cells were harvested under sterile conditions by forcing each spleen though a cell filter (pore size 100 μm diameter). A homogenous cell suspension was obtained by washing the cells in fresh medium and passing cells through a smaller cell filter (pore size 70 μm).
Untouched T cells were isolated using the Pan T cell isolation kit (Miltenyi Biotech). Briefly, cells were counted and incubated with the required volume of antibody cocktail for 5 minutes at 4° C. before addition of microbeads and incubation for 10 minutes at 4° C. Labeled cells were retained in a magnetic column while unlabeled cells (T cells) passed through the column and were retained for use in the assay.
Cell viability was assessed by Trypan Blue exclusion and found to be >99% prior to transfer to plates. Isolated T cells were seeded out in 96 well plates at a density of 50,000 cells per well and allowed to incubate for 60 minutes in a humidified cell culture (37° C., 5% CO2) incubator prior to compound treatment. The media used for this assay (TexMACS, Miltenyi Biotech) was previously optimized for proliferation of T cells in serum free conditions.
Representative compounds of the invention (i.e., test compounds) were prepared as 30 mM stocks in 100% DMSO. Test compounds were initially diluted in media to yield 3 mM stocks before an additional 1:10 dilution in media was performed to yield working stocks of 300 μM (1% DMSO). Subsequent dilutions were performed in media (supplemented with 1% DMSO). When added to the assay plates (1:10 dilution), these yielded final concentrations in the assay plates of in 0.1% DMSO. The reference compound, Cyclosporin A, was prepared in an identical manner as above.
Unstimulated and Stimulated Control wells received an identical volume of TexMACS media/1% DMSO at this time, resulting in a final concentration of 0.1% DMSO across the plate. Mouse anti-CD3/anti-CD28 dynabeads were prepared (following the manufacturers' instructions) in TexMACS media and added to appropriate wells to achieve a final concentration of 1 bead per cell. Unstimulated Control wells then received an identical volume of TexMACS. Plates were centrifuged 72 hours after addition of dynabeads, (300×g for 3 minutes) to pellet the cells and 60% of the supernatant was removed to a fresh plate for analysis by ELISA. After removal of 60% of the supernatant for subsequent ELISA, cell proliferation was assessed using the CCK-8 assay.
Average response by the standard compound, cyclosporin A, was 1 uM.

[1] = Metabolism by human liver microsomes; type: in vitro ADME; details: Table 8; 10 µM, in the presence of NADPH, 1 mg/mL protein
Method: Representative compounds of the invention (i.e., test compounds) and the positive control, 7-ethoxycoumarin, were prepared as stock solutions at 10 mM in DMSO and eventually diluted to 10 μM in the test plate, with an appropriate amount of acetonitrle and tris HCl buffer. Final DMSO and acetonitrile concentrations were […] and 0.5% respectively. NADPH was prepared in tris HCl buffer to a stock of 10 mM. A frozen aliquot of live microsomes was retrieved from the freezer (−80° C.) and thawed by placing the tube on wet ice. After thawing, the tubes were gently mixed and the required amount, transferred to tris HCl buffer. Test compounds or positive control were pre-incubated, separately, for 10 minutes, with liver microsomes (1 mg/mL protein), at 37° C., in 100 mM Tris HCl at pH 7.5. After preincubation the reaction was started by adding 1 mM NADPH (pre-equilibrated to […]) and the reaction allowed to proceed for 60 minutes. At 60 minutes, a 50 μL aliquot was removed and quenched with 200 uL of acetonitrile containing a mixture of internal standards (Tolbutamide (500 ng/mL) and Telmistartan (500 ng/mL)) and vortexed then centrifuged at 4000 rmp for 10 minutes (Eppendorf 5810R). The supernatant was transferred to a 96 well plate for LC-MS/MS analysis.
An LC-MS/MS method was devised for the test compounds and the control, using a AB Sciex API 4000 system coupled to a NEXAR™ UHPLC (Shimadzu) system. Analytes were separated on a Phenomenex Kinetex C18 column (50×2.1 mm, 5 μm) using a gradient that was appropriate for each compound, at a flow rate of 1 ml/minute, utilizing a mobile phase of 0.1% formic acid in MILLI-Q™ water (A) and 0.1% formic acid in acetonitrile (B). The MS instrument was operated in positive mode (ESI+)/negative (ESI−). The multiple reaction monitoring (MRM) transition for test and control compounds was used for the LC-MS/MS analysis. MRM transitions for control compound 7-ethoxycoumarinm were Quadropole 1: 191.0, Quadropole 3: 163.0, dwell time: 75 msec, using curtain gas settings of 5 V, ion-spray voltage of 5500 V, temperature of 50° C. and gas settings for nebulizer and auxiliary set to 30 and 40 psi, respectively. The interface heater was kept on. Entrance potential and collision cell exit potential were varied to tune for a specific compound.
Using a suitable LC-MS/MS method, the percentage of drug remaining at 60 minutes ([…]) was assessed by comparing the average analyte to internal standard area ratio at 60 minutes to the average analyte to internal standard area ratio at 0 time control, as a percentage, from a 5 to 10 μL sample injection.
According to the above assay, the representative compounds listed in Table 8 below were active in the Human liver microsome assay at […] and the % of drug remaining after 60 minutes (PDR60), in the presence of NADPH, was assessed by LC-MS/MS. Average PDR60 for the standard compound, 7-ethoxycoumarin was <=65% in the presence of NADPH. Scoring for the test compounds, in the presence of NADPH, was as follows: “A” represents a PDR^60 of 81 to 100%, “B” represents a PDR^60 of 61 to 80%, “C” represents a PDR^60 of 31 to 60% and “D” represents a PDR^60 of 0 to 30%.

Mice (male, C57Bl/6) [2] = assay: Formalin pain assay in mice; type: in vivo; details: Table 7; formalin 2.5%, left plantar
Method: Mice (male, C57BL/6) were placed singly in a Perspex chamber for approximately 30 min on three successive days to acclimate and thereby reduce stress-induced behaviors. On the fourth day, the experimental animals received a 25 μl injection of 2.5% formalin beneath the left plantar skin using a 29-gauge syringe. […] The total time spent on flinches/licking/biting of the hind paw was recorded by visual observation for every 5 min period/interval for total observation duration of 60 min in two phases, the early phase (0-5 min) and the late phase (15-40 min). Observers were blinded to the treatment group allocation.
For test compounds, the % protection from 0-60 min was used to assess activity. Scoring for the test compounds was as follows: “A” represents a % protection of 81 to 100%, “B” represents a % protection of 61 to 80%, “C” represents a % protection of 31 to 60% and “D” represents a % protection of 0 to 30%.

Mice (male, C57Bl/6) [3] = assay: Bleomycin lung fibrosis; type: in vivo
Source text: Mice (male, C57BL/6) were randomized into treatment groups and fibrosis was induced by intratracheal administration of bleomycin. Treatment with representative compounds of the invention (i.e., test compounds) or reference standard (pirfenidone) was initiated on Day −1 and administered daily unto Day 7 or Day 21. For groups undergoing bronchoalveolar lavage (BAL), the trachea was cannulated and infused with ice cold Hank's Balanced Salt Solution (HBSS, pH 7.2). The collected lavage fluid was analyzed for cell numbers (total and differential counts) and levels of soluble TGFβ and collagen. For other groups, the lungs were either snap-frozen or formalin-fixed for further analyses.

Structure (SMILES)	EC50 (Rat DRG) [µM]	IC50 (T cells) [µM]	Scoring (% of drug remaining after 60 minutes, PDR60) [1]	Scoring (% protection from 0-60 min) (Mice (male, C57Bl/6) [2])	reduction in BAL macrophages (Mice (male, C57Bl/6) [3]; Day 7, 100 mg/kg dose) [%]	reduction in fibrosis (Mice (male, C57Bl/6) [3]; Day 14, 100 mg/kg dose) [%]
C=C1CC[C@H]2[C@H](CNCc3ccc4c(c3)OC(F)(F)O4)[C@@H]([C@@]3(C)Cc4cn[nH]c4C[C@@H]3CO)CC[C@]12C [Ia-3, ((5R,6S)-5-((3aS,4R,5S,7aS)-4-((((2,2-difluorobenzo[d][1,3]dioxol-5-yl)methyl)amino)methyl)-7a-methyl-1-methyleneoctahydro-1H-inden-5-yl)-5-methyl-4,5,6,7-tetrahydro-1H-indazol-6-yl)methanol]	2 to 6	< 2	D (a PDR^60 of 0 to 30%)	–	–	–
CC(C)CCC[C@@H](C)[C@H]1CC[C@H]2[C@H](CN)[C@@H]([C@@]3(C)Cc4cn[nH]c4C[C@@H]3CO)CC[C@]12C [Ia-6, ((5R,6S)-5-((1R,3aS,4S,5S,7aR)-4-(aminomethyl)-7a-methyl-1-((R)-6-methylheptan-2-yl)octahydro-1H-inden-5-yl)-5-methyl-4,5,6,7-tetrahydro-1H-indazol-6-yl)methanol]	6 to 15	< 2	A (a PDR^60 of 81 to 100%)	C (a % protection of 31 to 60%)	–	–
CC(C)CCC[C@@H](C)[C@H]1CC[C@H]2[C@H](CNCc3ccc4c(c3)OC(F)(F)O4)[C@@H]([C@@]3(C)Cc4cn[nH]c4C[C@@H]3CO)CC[C@]12C [Ia-7, ((5R,6S)-5-((1R,3aS,4S,5S,7aR)-4-((((2,2-difluorobenzo[d][1,3]dioxol-5-yl)methyl)amino)methyl)-7a-methyl-1-((R)-6-methylheptan-2-yl)octahydro-1H-inden-5-yl)-5-methyl-4,5,6,7-tetrahydro-1H-indazol-6-yl)methanol]	–	< 2	–	–	–	–
C=C1CC[C@H]2[C@H](CN)[C@@H]([C@@]3(C)Cc4c(C(F)F)n[nH]c4C[C@@H]3CO)CC[C@]12C [Ia-30, ((5R,6S)-5-((3aS,4R,5S,7aS)-4-(aminomethyl)-7a-methyl-1-methyleneoctahydro-1H-inden-5-yl)-3-(difluoromethyl)-5-methyl-4,5,6,7-tetrahydro-1H-indazol-6-yl)methanol]	–	6 to 15	–	–	–	–
C=C1CC[C@H]2[C@H](CN)[C@@H]([C@@]3(C)Cc4c(C(F)(F)F)n[nH]c4C[C@@H]3CO)CC[C@]12C [Ia-31, ((5R,6S)-5-((3aS,4R,5S,7aS)-4-(aminomethyl)-7a-methyl-1-methyleneoctahydro-1H-inden-5-yl)-5-methyl-3-(trifluoromethyl)-4,5,6,7-tetrahydro-1H-indazol-6-yl)methanol]	–	2 to 6	–	–	–	–
C=C1CC[C@H]2[C@H](CN)[C@@H]([C@@]3(C)Cc4c(C)n[nH]c4C[C@@H]3CO)CC[C@]12C [Ia-32, ((5R,6S)-5-((3aS,4R,5S,7aS)-4-(aminomethyl)-7a-methyl-1-methyleneoctahydro-1H-inden-5-yl)-3,5-dimethyl-4,5,6,7-tetrahydro-1H-indazol-6-yl)methanol]	> 15	6 to 15	B (a PDR^60 of 61 to 80%)	C (a % protection of 31 to 60%)	–	–
C=C1[C@@H](O)C[C@H]2[C@H](CO)[C@@H]([C@@]3(C)Cc4cn[nH]c4C[C@@H]3CO)CC[C@]12C [Ia-66, (2S,3aS,4R,5S,7aS)-4-(hydroxymethyl)-5-((5R,6S)-6-(hydroxymethyl)-5-methyl-4,5,6,7-tetrahydro-1H-indazol-5-yl)-7a-methyl-1-methyleneoctahydro-1H-inden-2-ol]	> 15	–	A (a PDR^60 of 81 to 100%)	D (a % protection of 0 to 30%)	–	–
C=C1CC[C@H]2[C@H](CN)[C@@H]([C@@]3(C)Cc4conc4C[C@@H]3CO)CC[C@]12C [Ig-1, ((5R,6S)-5-((3aS,4R,5S,7aS)-4-(aminomethyl)-7a-methyl-1-methyleneoctahydro-1H-inden-5-yl)-5-methyl-4,5,6,7-tetrahydrobenzo[c]isoxazol-6-yl)methanol]	6 to 15	–	A (a PDR^60 of 81 to 100%)	C (a % protection of 31 to 60%)	–	–
Cc1ccc(=O)n(-c2ccccc2)c1 [pirfenidone, reference compound]	–	–	–	–	30	46

Reference: US11420962B2, “Indene derivatives useful in treating pain and inflammation” (TARO PHARMACEUTICALS INC., priority 2018, dated 2022)
